Patent EP0489581A2, “Cosmetic composition” (UNILEVER PLC, priority 1990, dated 1992)

Test system: skin surface
Assay: Body shampoo streak of 0.1% EtNic against placebo on the other side (erythema meter, Cyclops pyrometer)
Type: in vivo, human
Design: ERYTHEMA METER AN / ERYTHEMA METER FA / ERYTHEMA METER UA / ERYTHEMA METER BR / ERYTHEMA METER SH / ERYTHEMA METER WA / ERYTHEMA METER HI / ERYTHEMA METER TH / ERYTHEMA METER CA: scale not given here; TEMPERATURE CHANGE FA / TEMPERATURE CHANGE UA / TEMPERATURE CHANGE BR / TEMPERATURE CHANGE SH / TEMPERATURE CHANGE WA / TEMPERATURE CHANGE HI / TEMPERATURE CHANGE TH / TEMPERATURE CHANGE CA / TEMPERATURE CHANGE AN: unit not given here
Details: for ERYTHEMA METER TH / ERYTHEMA METER UA / TEMPERATURE CHANGE UA / ERYTHEMA METER WA / TEMPERATURE CHANGE WA / ERYTHEMA METER AN / ERYTHEMA METER CA / ERYTHEMA METER HI / ERYTHEMA METER FA / ERYTHEMA METER BR / ERYTHEMA METER SH: 0.1% EtNic; for ERYTHEMA METER TH: thigh; for ERYTHEMA METER UA / TEMPERATURE CHANGE UA: upper arm; for ERYTHEMA METER WA / TEMPERATURE CHANGE WA: waist; for ERYTHEMA METER AN: ankle; for ERYTHEMA METER CA: calf; for ERYTHEMA METER HI: hip; for ERYTHEMA METER FA: mid forearm; for ERYTHEMA METER BR: side breast; for ERYTHEMA METER SH: side shoulder
Description: A subject showered in the conventional way but without shampoo or soap. The redness and temperature of the skin surface was measured at symmetrical points from the mid forearm down the body to the ankle, after the excess water had been removed by light towelling. The person re-showered and between 2 and 3 grammes of shampoo according to Example 5 was streaked down one side of the body in a broad line. The body shampoo was rubbed into a lather periodically during the two minutes. A placebo shampoo of corresponding composition was applied first to one side of the body and then the time started when the shampoo with the ethyl nicotinate was applied to the other side. […] The redness was measured with the erythema meter whilst the temperature was measured with a Cyclops pyrometer at ten sites on each side. The time was taken as the mean of the two times for each pair of sites. The time course was followed for about 50 minutes. After about 210 minutes the experiment was repeated, but treating the opposite sides. The result shown below are the differences in redness and temperature of the corresponding sites.

[1] = left hand side, time 10.00, mean time 10.37, difference of corresponding sites
[2] = left hand side, time 25.00, mean time 24.98, difference of corresponding sites
[3] = left hand side, time 38.00, mean time 38.30, difference of corresponding sites
[4] = left hand side, time 53.00, mean time 52.87, difference of corresponding sites
[5] = left hand side, mean time 0.00 (baseline), difference of corresponding sites
[6] = left hand side, mean time 17.56, difference of corresponding sites
[7] = left hand side, mean time 31.56, difference of corresponding sites
[8] = left hand side, mean time 44.89, difference of corresponding sites
[9] = left hand side, mean time 59.61, difference of corresponding sites
[10] = left hand side, mean time 77.21, difference of corresponding sites
[11] = right hand side, mean time 0.00 (baseline), difference of corresponding sites
[12] = right hand side, time 10.00, mean time 9.79, difference of corresponding sites
[13] = right hand side, time 26.00, mean time 26.13, difference of corresponding sites
[14] = right hand side, time 42.00, mean time 42.25, difference of corresponding sites
[15] = right hand side, time 210.00, mean time 209.78, difference of corresponding sites
[16] = all the sites, shampoo according to Example 5, two minutes

`CCOC(=O)c1cccnc1` [EtNic, ethyl nicotinate] was tested, and the “ERYTHEMA METER TH” value [1] was 0.47, the “ERYTHEMA METER TH” value [2] was 0.43 and the “ERYTHEMA METER TH” value [3] was 0.28. The “ERYTHEMA METER TH” value [4] was 0.17, the “ERYTHEMA METER UA” value [5] was -0.28 and the “TEMPERATURE CHANGE UA” value [5] was 0.00. For the same molecule, the “TEMPERATURE CHANGE UA” value [6] was 3.10, the “TEMPERATURE CHANGE UA” value [7] was 3.60 and the “TEMPERATURE CHANGE UA” value [8] was 2.70. The “TEMPERATURE CHANGE UA” value [9] was 1.80, the “TEMPERATURE CHANGE UA” value [10] was 1.40 and the “ERYTHEMA METER UA” value [1] was 1.35. For the same molecule, the “ERYTHEMA METER UA” value [2] was 0.67, the “ERYTHEMA METER UA” value [3] was 0.82 and the “ERYTHEMA METER UA” value [4] was 0.23. The “ERYTHEMA METER WA” value [5] was 0.03, the “TEMPERATURE CHANGE WA” value [5] was -0.30 and the “TEMPERATURE CHANGE WA” value [6] was 4.80. The “TEMPERATURE CHANGE WA” value [7] was 6.80, the “TEMPERATURE CHANGE WA” value [8] was 6.40 and the “TEMPERATURE CHANGE WA” value [9] was 5.00. The “TEMPERATURE CHANGE WA” value [10] was 3.60, the “ERYTHEMA METER WA” value [1] was 0.66 and the “ERYTHEMA METER WA” value [2] was 0.44. The “ERYTHEMA METER WA” value [3] was 0.79, the “ERYTHEMA METER WA” value [4] was 0.05 and the “ERYTHEMA METER AN” value [11] was 0.08. For the same molecule, the “ERYTHEMA METER AN” value [12] was 0.62, the “ERYTHEMA METER AN” value [13] was 0.57 and the “ERYTHEMA METER AN” value [14] was 0.57. The “ERYTHEMA METER AN” value [15] was 0.53, the “ERYTHEMA METER CA” value [11] was 0.06 and the “ERYTHEMA METER CA” value [12] was 0.87. For the same molecule, the “ERYTHEMA METER CA” value [13] was 0.75, the “ERYTHEMA METER CA” value [14] was 0.58 and the “ERYTHEMA METER CA” value [15] was 0.26. The “ERYTHEMA METER HI” value [11] was 0.44, the “ERYTHEMA METER HI” value [12] was 0.92 and the “ERYTHEMA METER HI” value [13] was 0.55. For the same molecule, the “ERYTHEMA METER HI” value [14] was 0.50, the “ERYTHEMA METER HI” value [15] was -0.03 and the “ERYTHEMA METER FA” value [11] was 0.20. The “ERYTHEMA METER FA” value [12] was -0.28, the “ERYTHEMA METER FA” value [13] was 0.51 and the “ERYTHEMA METER FA” value [14] was 0.41. The “ERYTHEMA METER FA” value [15] was 0.65, the “ERYTHEMA METER BR” value [11] was 0.06 and the “ERYTHEMA METER BR” value [12] was 1.20. The “ERYTHEMA METER BR” value [13] was 1.48, the “ERYTHEMA METER BR” value [14] was 0.72 and the “ERYTHEMA METER BR” value [15] was 0.12. For the same molecule, the “ERYTHEMA METER SH” value [11] was 0.12, the “ERYTHEMA METER SH” value [12] was 1.81 and the “ERYTHEMA METER SH” value [13] was 1.61. For the same molecule, the “ERYTHEMA METER SH” value [14] was 0.81, the “ERYTHEMA METER SH” value [15] was 0.00 and the “ERYTHEMA METER TH” value [11] was 0.07. The “ERYTHEMA METER TH” value [12] was 0.87, the “ERYTHEMA METER TH” value [13] was 0.43 and the “ERYTHEMA METER TH” value [14] was 0.04. The “ERYTHEMA METER TH” value [15] was 0.23, the “ERYTHEMA METER UA” value [11] was 0.38 and the “ERYTHEMA METER UA” value [12] was 0.89. For the same molecule, the “ERYTHEMA METER UA” value [13] was 1.40, the “ERYTHEMA METER UA” value [14] was 0.74 and the “ERYTHEMA METER UA” value [15] was 0.28. The “ERYTHEMA METER WA” value [11] was 0.06, the “ERYTHEMA METER WA” value [12] was 1.16 and the “ERYTHEMA METER WA” value [13] was 1.09. For the same molecule, the “ERYTHEMA METER WA” value [14] was 0.70, the “ERYTHEMA METER WA” value [15] was -0.03 and the redness [16] was “increase”. The temperature [16] was “increase” and the maximum temperature difference (at the waist) was “seven”.
